Results reported in patent publication US20230257374A1, “NOVEL KRAS G12C PROTEIN INHIBITOR, PREPARATION METHOD THEREFOR, AND USE THEREOF” (INNOVENT BIOLOGICS (SUZHOU) CO., LTD., priority 2019, published 2023).

Key:
[1] = Stability test in human plasma; settings: for Remaining percentage (%) 0 min / Remaining percentage (%) 30 min / Remaining percentage (%) 60 min / Remaining percentage (%) 120 min / Remaining percentage (%) 180 min / Remaining percentage (%) 240 min: human plasma, 37° C.; for half-life at 5 μM: human, plasma
[2] = tested on: NCI-H358 tumor (K-RAS G12C mutation); format: in vivo, BALB/c nude mice; settings: for Day 0 Tumor volume (mm^3) Vaverage ± SEM: Day 0 (at grouping, before administration), 15 mg/kg PO QD group; for Day 21 Tumor volume (mm^3) Vaverage ± SEM / Tumor inhibition rate TGI (%) / Tumor regression: Day 21, 15 mg/kg PO QD; for Tumor regression: animals with regression / group of 8; for Day 0 Body weight (g) Waverage ± SEM: mouse, in vivo, po, 15 mg/kg
Procedure: The cells were digested with trypsin-EDTA twice a week for passaging as per conventional practice. When the cell saturation reached 80%-90% and a required amount was achieved, the cells were collected and counted for later use. […] 5% DMSO/5% Solutol/90% water was used as a blank control. 3) Tumor inoculation and drug administration: BALB/c nude mice, female, 6-8 weeks old, weighing 18-20 g. The experiment started after 3-7 days of adaptive feeding. 0.1 mL of NCI-H358 cells (5×10^6 cells) were inoculated subcutaneously on the right back of each mouse. The mice were grouped for administration when the average tumor volume reached approximately 150 mm^3. The animals were weighed before administration and the tumor volume was measured. Grouping was randomly performed according to the tumor volume.
Animals were monitored daily for health and death, and routine examinations include observation of the effect of tumor growth and drug treatment on the daily performance of the animals, such as behavioral activities, food and water intake, weight changes (measured once every other day), appearance, or other abnormal conditions. Animal mortality and side effects within each group were recorded based on the number of animals in the group.
Tumor diameters were measured 2-3 times weekly using a vernier caliper.
The tumor volume was calculated as follows: […]
where a and b represent the long and short diameters of the tumor, respectively.
The anti-tumor therapeutic effect of the compound was evaluated by tumor growth inhibition rate TGI (%) or relative tumor proliferation rate T/C (%).
TGI (%) was calculated as follows: […]
T/C (%) was calculated as follows: […]
where TRTV represents the relative tumor volume of the treatment group; CRTV represents the relative tumor volume of the solvent control group.
Based on the results of tumor measurement, the relative tumor volume (RTV) was calculated as follows: […]
where V0 represents the average tumor volume measured at the time of grouping and administration (i.e., d0), Vt represents the average tumor volume in a certain measurement, and TRTV and CRTV take the data on the same day.
After the completion of the experiment, tumors were weighed, and the percentage of Tweight/Cweight was calculated, where Tweight and Cweight represent the tumor weights of the treatment group and the solvent control group, respectively.
Data calculation and analysis: T test was employed for comparison between two groups. One-way ANOVA was employed for comparison between three or more groups. If there is a significant difference in F-values, multiple comparisons should be made after ANOVA analysis. All data analyses were performed with SPSS 17.0. p<0.05 was defined as a significant difference.

[3] = tested on: MIA PaCa-2 cell line (K-RAS G12C); assay: cells; format: cell-based; settings: for IC50: Homo sapiens, MIA PaCa-2, 96 h, 3D culture, CellTiter-Glo 3D, read on day 4, read-out: MIA PaCa-2 (K-RAS G12C) IC50; for Selectivity (fold number of mutant vs. wild type): PC-9 IC50 vs. MIA PaCa-2 IC50
Procedure: (§1) a) On day 1, seed cells were placed in T75 a flask. b) On day 3, the medium was taken out and washed once with DPBS. c) Cells were trypsinized with 2 mL TrypLE™ Express enzyme at room temperature (RT) or 37° C. until cells detached. d) 5 mL of fresh medium was added to suspend the cells, and then the suspension was centrifuged at 1000 rpm and room temperature for 5 min. e) The supernatant was discarded, and the cells were resuspended in 5 mL of fresh medium and counted using Countess™ H. f) The cells were seeded back into the T75 flask for further culture or placed into an assay plate for 3D cell proliferation assay.
(§2) The cells were seeded at a density of 600 cells/well in a 384-well plate with 40 μL of medium per well and a final DMSO concentration of 0.5%. b) On day 4, a 3D CTG reagent was added to each well, followed by shaking at room temperature for 1 h. c) The signals were recorded using Envision.
(§3) a) Robustness was examined using 0.5% DMSO and data of blank control medium: H=mean (DMSO); L=mean (medium); SD (H)=STDEV (DMSO); SD (L)=STDEV (medium);
(§4) Y=peak valley value+(peak top value−peak valley value)/(1+10^((Log IC50−X)×HillSlope));
(§5) X: logarithm of compound concentration; Y: percent inhibition (% inhibition); Peak top and peak valley values: the plateau period units are the same as Y; log IC50: the same logarithmic unit as X; HillSlope: slope coefficient or Hill slope.

[4] = tested on: PC-9 cell line (K-RAS wild type); assay: cells; format: cell-based; settings: Homo sapiens, PC-9, 96 h; 3D culture, CellTiter-Glo 3D, read on day 4
Procedure: as §1, §2, §3, §4, §5

[5] = tested on: H1373 cell line (K-RAS G12C); assay: cells; format: cell-based; settings: for IC50: Homo sapiens, NCI-H1373, 96 h, 3D culture, CellTiter-Glo 3D, read on day 4, read-out: H1373 (K-RAS G12C) IC50; for Selectivity (fold number of mutant vs. wild type): PC-9 IC50 vs. H1373 IC50
Procedure: as §1, §2, §3, §4, §5

in vitro = settings: microsomes, pH 7.4

SMILES: [2H]C([2H])([2H])c1cccc2cccc(N3CCc4c(nc(OC[C@@H]5CCCN5C)nc4N4CCN(C(=O)C=C)[C@@H](CC#N)C4)C3)c12 [Compound 1, 2-((S)-1-acryloyl-4-(7-(8-(methyl-d3)naphthalen-1-yl)-2-(((S)-1-methylpyrrolidin-2-yl)methoxy)-5,6,7,8-tetrahydropyrido[3,4-d]pyrimidin-4-yl)piperazin-2-yl)acetonitrile]
- Remaining percentage (%) 0 min [1]: 100.00%
- Remaining percentage (%) 30 min [1]: 92.80%
- Remaining percentage (%) 60 min [1]: 76.27%
- Remaining percentage (%) 120 min [1]: 58.94%
- Remaining percentage (%) 180 min [1]: 39.27%
- Remaining percentage (%) 240 min [1]: 25.75%
- half-life at 5 μM [1]: 122 min
- Day 0 Tumor volume (mm^3) Vaverage ± SEM [2]: 150 ± 10 mm^3
- Day 21 Tumor volume (mm^3) Vaverage ± SEM [2]: 153 ± 14 mm^3
- Tumor inhibition rate TGI (%) [2]: 99.5%
- Tumor regression [2]: 3/8
- Day 0 Body weight (g) Waverage ± SEM [2]: 22.5 ± 0.5 g
- IC50 [3]: 0.49 nM
- Selectivity (fold number of mutant vs. wild type) [3]: 9816 fold
- IC50 [4]: 4810 nM
- IC50 [5]: 0.68 nM
- Selectivity (fold number of mutant vs. wild type) [5]: 7074 fold
- half-life at 1 μM (in vitro; ICR (CD-1), mouse): 20.9 min
- microsomal CLint at 1 μM (in vitro; ICR (CD-1), mouse): 66.5 µL/min/mg
- half-life at 1 μM (in vitro; human): 29.3 min
- microsomal CLint at 1 μM (in vitro; human): 47.3 µL/min/mg

SMILES: [2H]C([2H])([2H])N1CCC[C@H]1COc1nc2c(c(N3CCN(C(=O)C=C)[C@@H](CC#N)C3)n1)CCN(c1cccc3cccc(C)c13)C2 [Compound 42, 2-((S)-1-acryloyl-4-(7-(8-methylnaphthalen-1-yl)-2-(((S)-1-(methyl-d3)pyrrolidin-2-yl)methoxy)-5,6,7,8-tetrahydropyrido[3,4-d]pyrimidin-4-yl)piperazin-2-yl)acetonitrile]
- Remaining percentage (%) 0 min [1]: 100.00%
- Remaining percentage (%) 30 min [1]: 90.36%
- Remaining percentage (%) 60 min [1]: 77.31%
- Remaining percentage (%) 120 min [1]: 57.19%
- Remaining percentage (%) 180 min [1]: 36.19%
- Remaining percentage (%) 240 min [1]: 27.49%
- half-life at 5 μM [1]: 123 min
- Day 0 Tumor volume (mm^3) Vaverage ± SEM [2]: 150 ± 9 mm^3
- Day 21 Tumor volume (mm^3) Vaverage ± SEM [2]: 151 ± 18 mm^3
- Tumor inhibition rate TGI (%) [2]: 99.8%
- Tumor regression [2]: 4/8
- Day 0 Body weight (g) Waverage ± SEM [2]: 22.8 ± 0.6 g
- IC50 [3]: 0.51 nM
- Selectivity (fold number of mutant vs. wild type) [3]: 4647 fold
- IC50 [4]: 2370 nM
- IC50 [5]: 0.26 nM
- Selectivity (fold number of mutant vs. wild type) [5]: 9115 fold
- half-life at 1 μM (in vitro; ICR (CD-1), mouse): 22.8 min
- microsomal CLint at 1 μM (in vitro; ICR (CD-1), mouse): 60.9 µL/min/mg
- half-life at 1 μM (in vitro; human): 27.2 min
- microsomal CLint at 1 μM (in vitro; human): 51 µL/min/mg
